Experimental data published in patent US5721207A, “Method for treatment of pain” (Innapharma, Inc., priority 1995, dated 1998).
Where two headings read alike, the source gives them in different places.

Tested on: rat
[1] = intrathecal, 30 min post-injection

Method: Intrathecal catheters were surgically implanted in the rats after application of anesthetic (Nembutal, 30 mg/kg, intraperitoneal) 5-7 days prior to the test procedure. The 5-7 day period prior to testing allowed for full recovery from the surgical procedures. […] Each catheter was anchored to the skull with cyanoacrylate adhesive, and the skull was closed with wound clips. The free end of each catheter was heat annealed; when compositions were to be injected via the intrathecal route each composition was introduced therein using a Hamilton needle inserted into the sealed catheter.
Pain sensitivity was assessed using a standard analgesiometric hot plate test (Woolfe and MacDonald (1944) J. Pharmacol. Exp. Ther. 80:300). The hot plate response was determined by placing a rat on a 55° C. copper hot plate enclosed in a plexiglass cylinder.
Because of the technical demands of these experiments, no more than 8-9 rats were tested on a given day. Sufficient animals were studied to obtain 10-11 evaluable rats per test condition. On the study day, animals were tested for baseline hot plate responses, and then received bolus injections of test analgesic or physiological saline (control). Hot plate responses were assessed again at 15 min, 30 min, 1 hr, 3 hr, 6 hr and 24 hr after intrathecal injection of test compound or vehicle control.
Ninety-six (96) rats, ranging in weight from 320 g to 420 g, were used in this study. Catheters were implanted and recovery was allowed for as described hereinabove. […] Drug or saline vehicle doses were administered using Hamilton needles inserted into the catheters, with a dose volumes of 37.5 μL/kg followed by a 10 μL saline catheter wash-out. Baseline (pre-drug) and responses at 15 min, 30 min, 1 hr, 3 hr, 6 hr and 24 hr after drug or vehicle injection were determined.

With “[Des-Cys^1,ASU^7 ]-Calcitonin, Eel [Elcatonin]” the “Hot Plate Latency (Mean ± SEM)” value (2.4 IU/kg (0.39 μg/kg, 0.12 nmol/kg) intrathecal single, 3 hr) was 13.0 ± 0.7 s, the “Hot Plate Latency (Mean ± SEM)” value (2.4 IU/kg (0.39 μg/kg, 0.12 nmol/kg) intrathecal single, 6 hr) was 12.1 s and the “Hot Plate Latency (Mean ± SEM)” value (2.4 IU/kg (0.39 μg/kg, 0.12 nmol/kg) intrathecal single, 24 hr) was 10.8 ± 0.7 s. For the same substance, the “response at the lowest dose” value (2.4 IU/kg or 0.39 μg/kg intrathecal) was “slightly smaller response”, the “differences in hot plate latencies between doses” value (3.6-6.0 IU/kg intrathecal) was “no apparent differences in hot plate latencies” and the “Hot Plate Latency (Mean ± SEM)” value (3.6 IU/kg (0.58 μg/kg, 0.18 nmol/kg) intrathecal single, 0 hr (baseline)) was 12.92 ± 1.4 s. For the same substance, the “Hot Plate Latency (Mean ± SEM)” value (3.6 IU/kg (0.58 μg/kg, 0.18 nmol/kg) intrathecal single, 0.25 hr) was 21.04 ± 2.22 s, the “Hot Plate Latency (Mean ± SEM)” value (3.6 IU/kg (0.58 μg/kg, 0.18 nmol/kg) intrathecal single, 0.5 hr) was 26.03 ± 3.08 s and the “Hot Plate Latency (Mean ± SEM)” value (3.6 IU/kg (0.58 μg/kg, 0.18 nmol/kg) intrathecal single, 1 hr) was 26.08 ± 3.69 s. The “Hot Plate Latency (Mean ± SEM)” value (3.6 IU/kg (0.58 μg/kg, 0.18 nmol/kg) intrathecal single, 3 hr) was 23.14 ± 3.05 s, the “Hot Plate Latency (Mean ± SEM)” value (3.6 IU/kg (0.58 μg/kg, 0.18 nmol/kg) intrathecal single, 6 hr) was 20.37 s and the “Hot Plate Latency (Mean ± SEM)” value (3.6 IU/kg (0.58 μg/kg, 0.18 nmol/kg) intrathecal single, 24 hr) was 15.79 ± 2.40 s. For the same substance, the “Hot Plate Latency (Mean ± SEM)” value (4.4 IU/kg ([…], 0.22 nmol/kg) intrathecal single, 0 hr (baseline)) was 13.68 ± 1.10 s, the “Hot Plate Latency (Mean ± SEM)” value (4.4 IU/kg ([…], 0.22 nmol/kg) intrathecal single, 0.25 hr) was 21.89 ± 3.12 s and the “Hot Plate Latency (Mean ± SEM)” value (4.4 IU/kg ([…], 0.22 nmol/kg) intrathecal single, 0.5 hr) was 26.03 ± 3.36 s. The “Hot Plate Latency (Mean ± SEM)” value (4.4 IU/kg ([…], 0.22 nmol/kg) intrathecal single, 1 hr) was 26.20 ± 2.37 s, the “Hot Plate Latency (Mean ± SEM)” value (4.4 IU/kg ([…], 0.22 nmol/kg) intrathecal single, 3 hr) was 21.11 ± 2.18 s and the “Hot Plate Latency (Mean ± SEM)” value (4.4 IU/kg ([…], 0.22 nmol/kg) intrathecal single, 6 hr) was 20.02 s. The “Hot Plate Latency (Mean ± SEM)” value (4.4 IU/kg ([…], 0.22 nmol/kg) intrathecal single, 24 hr) was 11.78 ± 1.75 s, the “Hot Plate Latency (Mean ± SEM)” value (5.2 IU/kg (0.84 μg/kg, 0.26 nmol/kg) intrathecal single, 0 hr (baseline)) was 13.41 ± 0.92 s and the “Hot Plate Latency (Mean ± SEM)” value (5.2 IU/kg (0.84 μg/kg, 0.26 nmol/kg) intrathecal single, 0.25 hr) was 27.89 ± 3.10 s. The “Hot Plate Latency (Mean ± SEM)” value (5.2 IU/kg (0.84 μg/kg, 0.26 nmol/kg) intrathecal single, 0.5 hr) was 31.55 ± 4.17 s, the “Hot Plate Latency (Mean ± SEM)” value (5.2 IU/kg (0.84 μg/kg, 0.26 nmol/kg) intrathecal single, 1 hr) was 25.82 ± 3.79 s and the “Hot Plate Latency (Mean ± SEM)” value (5.2 IU/kg (0.84 μg/kg, 0.26 nmol/kg) intrathecal single, 3 hr) was 28.81 ± 3.41 s. For the same substance, the “Hot Plate Latency (Mean ± SEM)” value (5.2 IU/kg (0.84 μg/kg, 0.26 nmol/kg) intrathecal single, 6 hr) was 22.97 s, the “Hot Plate Latency (Mean ± SEM)” value (5.2 IU/kg (0.84 μg/kg, 0.26 nmol/kg) intrathecal single, 24 hr) was 12.36 ± 1.69 s and the “Hot Plate Latency (Mean ± SEM)” value (6.0 IU/kg (0.97 μg/kg, 0.30 nmol/kg) intrathecal single, 0 hr (baseline)) was 11.38 ± 0.89 s. For the same substance, the “Hot Plate Latency (Mean ± SEM)” value (6.0 IU/kg (0.97 μg/kg, 0.30 nmol/kg) intrathecal single, 0.25 hr) was 25.22 ± 4.13 s, the “Hot Plate Latency (Mean ± SEM)” value (6.0 IU/kg (0.97 μg/kg, 0.30 nmol/kg) intrathecal single, 0.5 hr) was 28.91 ± 3.40 s and the “Hot Plate Latency (Mean ± SEM)” value (6.0 IU/kg (0.97 μg/kg, 0.30 nmol/kg) intrathecal single, 1 hr) was 24.48 ± 3.35 s. The “Hot Plate Latency (Mean ± SEM)” value (6.0 IU/kg (0.97 μg/kg, 0.30 nmol/kg) intrathecal single, 3 hr) was 26.60 ± 3.87 s, the “Hot Plate Latency (Mean ± SEM)” value (6.0 IU/kg (0.97 μg/kg, 0.30 nmol/kg) intrathecal single, 6 hr) was 24.69 s and the “Hot Plate Latency (Mean ± SEM)” value (6.0 IU/kg (0.97 μg/kg, 0.30 nmol/kg) intrathecal single, 24 hr) was 11.17 ± 1.80 s. For the same substance, the “hot plate analgesia compared with morphine sulfate (49.42-164.73 nmol/kg)” value (6 hours post-injection, all tested doses of elcatonin (0.12-0.30 nmol/kg)) was “more potent hot plate analgesia than all tested doses of morphine sulfate”, the “duration of analgesia, elcatonin compared with morphine” value (intrathecal) was “generally longer duration of analgesic activity than morphine” and the “molar concentration producing potent analgesia, lower than morphine sulfate by” value (intrathecal) was “approximately 1000 fold”. For the same substance, the “dose approximately equivalent to 164.73 nmol/kg morphine sulfate (125.0 μg/kg)” value [1] was about 0.18 nmol/kg, the “dose producing a hot plate latency similar to 98.84 nmol/kg morphine sulfate (75.0 μg/kg)” value [1] was about 0.12 nmol/kg and the “onset of antinociception/analgesia post-injection” value (intrathecal, all tested doses) was at most 15 min. For the same substance, the “time of peak antinociception” value (intrathecal, all tested doses (2.4-6.0 IU/kg)) was 30 to 60 min and the “analgesia compared to intrathecal morphine” value (rat hot plate, intrathecal) was “dramatically improved analgesia”.
